From ChEMBL document CHEMBL5665443, “Enzyme Inhibitor Single Concentration assay results for EUbOPEN Chemogenomics Library” (2024) come the findings set out here.

Holding throughout (conditions): Compound Concentration 10.0 uM, Hit No
Experiment [1] concerns the target Methyl-CpG-binding domain protein 4 (Homo sapiens) (UniProt O95243).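 Note: MBD4 activity read as fluorescence at 594 nm from cleavage and release of a quenched duplex DNA oligonucleotide, with APE1 coupled to incise the strand and raise turnover.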
Description: Inhibition of MBD4 by quantifying inhibition of MBD4-mediated cleavage and dissociation of quenched duplex DNA oligonucleotides, measured as fluorescence at 594 nm. To generate a functional strand incision and increase turn-over this assay is coupled to APE1.
In experiment [2] the target is DNA-3-methyladenine glycosylase (Homo sapiens) (UniProt P29372).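 Note: enzyme assay where MPG cuts a quenched duplex DNA oligonucleotide probe, paired with APE1 for strand incision and turnover, read as fluorescence at 594 nm.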
Sequence of DNA-3-methyladenine glycosylase (Homo sapiens) (P29372 whole entry): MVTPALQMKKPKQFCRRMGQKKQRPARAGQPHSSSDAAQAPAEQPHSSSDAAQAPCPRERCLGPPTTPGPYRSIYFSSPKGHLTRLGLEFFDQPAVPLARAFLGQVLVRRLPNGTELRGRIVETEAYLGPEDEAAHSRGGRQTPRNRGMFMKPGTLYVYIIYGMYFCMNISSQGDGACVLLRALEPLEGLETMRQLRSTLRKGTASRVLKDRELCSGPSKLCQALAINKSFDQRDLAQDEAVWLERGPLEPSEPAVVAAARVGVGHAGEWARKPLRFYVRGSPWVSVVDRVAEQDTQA
Description: Inhibition of MPG by quantifying inhibition of MPG-mediated cleavage and dissociation of quenched duplex DNA oligonucleotides, measured as fluorescence at 594 nm. To generate a functional strand incision and increase turn-over this assay is coupled to APE1.
Experiment [3] has as its target Endonuclease 8-like 1 (Homo sapiens) (UniProt Q96FI4).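 Note: fluorescence at 594 nm from quenched duplex DNA oligonucleotides released by NEIL1 cleavage and strand separation, reported as reduction of this enzyme activity.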
Description: Inhibition of NEIL1 by quantifying inhibition of NEIL1-mediated cleavage and dissociation of quenched duplex DNA oligonucleotides, measured as fluorescence at 594 nm.
The target in experiment [4] is T1, Endonuclease 8-like 2 (Homo sapiens) (UniProt Q969S2).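 Note: fluorescence at 594 nm reports NEIL2 cutting and release of a quenched double-stranded DNA oligo substrate, reduced signal read as inhibition.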
T1 sequence (whole entry): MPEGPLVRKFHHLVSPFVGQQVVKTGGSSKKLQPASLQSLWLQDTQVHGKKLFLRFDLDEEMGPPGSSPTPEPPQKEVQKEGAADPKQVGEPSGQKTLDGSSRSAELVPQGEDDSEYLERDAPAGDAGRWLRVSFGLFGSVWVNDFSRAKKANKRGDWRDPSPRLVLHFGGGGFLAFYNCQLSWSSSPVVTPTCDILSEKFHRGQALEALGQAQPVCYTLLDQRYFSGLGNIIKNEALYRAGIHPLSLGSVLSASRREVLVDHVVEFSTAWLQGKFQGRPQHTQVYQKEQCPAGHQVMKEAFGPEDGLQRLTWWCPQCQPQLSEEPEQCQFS
Description: Inhibition of NEIL2 by quantifying inhibition of NEIL2-mediated cleavage and dissociation of quenched duplex DNA oligonucleotides, measured as fluorescence at 594 nm.

For experiment [5], the target named is T2, Endonuclease III-like protein 1 (Homo sapiens) (UniProt P78549).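 Note: enzyme assay tracking NTHL1 cutting and release of a quenched double-stranded DNA oligo substrate, read as fluorescence at 594 nm.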
T2 sequence (whole entry): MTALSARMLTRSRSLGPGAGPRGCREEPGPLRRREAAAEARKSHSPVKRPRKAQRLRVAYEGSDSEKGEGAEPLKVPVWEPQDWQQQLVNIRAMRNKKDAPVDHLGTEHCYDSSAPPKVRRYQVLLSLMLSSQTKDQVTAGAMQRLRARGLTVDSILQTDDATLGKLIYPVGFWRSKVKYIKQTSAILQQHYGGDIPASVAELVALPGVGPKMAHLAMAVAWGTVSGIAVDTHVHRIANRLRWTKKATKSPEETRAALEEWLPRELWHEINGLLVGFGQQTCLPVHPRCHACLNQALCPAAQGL
Description: Inhibition of NTHL1 by quantifying inhibition of NTHL1-mediated cleavage and dissociation of quenched duplex DNA oligonucleotides, measured as fluorescence at 594 nm.

For experiment [6], the target named is N-glycosylase/DNA lyase (Homo sapiens) (UniProt O15527).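 Note: OGG1 cleavage of a quenched duplex DNA oligonucleotide, coupled to APE1 for strand incision, read as fluorescence at 594 nm.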
Sequence of N-glycosylase/DNA lyase (Homo sapiens) (O15527 whole entry): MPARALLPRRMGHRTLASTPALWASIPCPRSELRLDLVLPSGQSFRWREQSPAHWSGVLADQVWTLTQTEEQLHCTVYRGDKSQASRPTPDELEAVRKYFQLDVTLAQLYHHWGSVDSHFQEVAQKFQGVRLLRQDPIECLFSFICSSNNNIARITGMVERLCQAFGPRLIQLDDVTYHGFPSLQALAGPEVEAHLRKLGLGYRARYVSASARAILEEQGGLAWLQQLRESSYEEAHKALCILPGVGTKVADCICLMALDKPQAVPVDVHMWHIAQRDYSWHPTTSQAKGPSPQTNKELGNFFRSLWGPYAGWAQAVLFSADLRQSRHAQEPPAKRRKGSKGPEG
Description: Inhibition of OGG1 by quantifying inhibition of OGG1-mediated cleavage and dissociation of quenched duplex DNA oligonucleotides, measured as fluorescence at 594 nm. To generate a functional strand incision and increase turn-over this assay is coupled to APE1.
Experiment [7] has as its target T3, Single-strand selective monofunctional uracil DNA glycosylase (Homo sapiens) (UniProt Q53HV7).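 Note: enzymatic SMUG1 assay coupled with APE1, reading fluorescence at 594 nm released when a quenched double-stranded DNA oligonucleotide substrate is cleaved and separated.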
T3 sequence (whole entry): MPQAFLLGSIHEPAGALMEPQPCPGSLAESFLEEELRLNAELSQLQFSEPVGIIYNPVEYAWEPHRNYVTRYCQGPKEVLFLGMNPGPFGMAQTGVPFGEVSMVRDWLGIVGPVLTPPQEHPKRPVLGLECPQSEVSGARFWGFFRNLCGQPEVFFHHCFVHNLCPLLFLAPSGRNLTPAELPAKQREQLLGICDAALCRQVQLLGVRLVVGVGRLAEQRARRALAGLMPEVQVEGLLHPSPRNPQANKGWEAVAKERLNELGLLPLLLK
Description: Inhibition of SMUG1 by quantifying inhibition of SMUG1-mediated cleavage and dissociation of quenched duplex DNA oligonucleotides, measured as fluorescence at 594 nm. To generate a functional strand incision and increase turn-over this assay is coupled to APE1.

For experiment [8], the target named is G/T mismatch-specific thymine DNA glycosylase (Homo sapiens) (UniProt Q13569).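 Note: human TDG cleavage of quenched duplex DNA oligonucleotides coupled to APE1, strand release read as fluorescence at 594 nm, inhibition of TDG activity.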
Sequence of G/T mismatch-specific thymine DNA glycosylase (Homo sapiens) (Q13569 whole entry): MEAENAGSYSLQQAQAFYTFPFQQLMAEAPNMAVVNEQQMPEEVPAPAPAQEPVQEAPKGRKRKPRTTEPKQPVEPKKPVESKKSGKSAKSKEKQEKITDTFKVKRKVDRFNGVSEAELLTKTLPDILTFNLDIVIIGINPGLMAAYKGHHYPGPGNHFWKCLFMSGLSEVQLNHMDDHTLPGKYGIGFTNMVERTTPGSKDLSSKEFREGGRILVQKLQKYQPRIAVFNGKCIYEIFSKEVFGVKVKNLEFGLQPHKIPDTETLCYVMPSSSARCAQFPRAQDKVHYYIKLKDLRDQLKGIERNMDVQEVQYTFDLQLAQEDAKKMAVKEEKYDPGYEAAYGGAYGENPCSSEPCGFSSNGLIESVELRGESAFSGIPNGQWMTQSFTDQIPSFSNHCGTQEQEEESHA
Description: Inhibition of TDG by quantifying inhibition of TDG-mediated cleavage and dissociation of quenched duplex DNA oligonucleotides, measured as fluorescence at 594 nm. To generate a functional strand incision and increase turn-over this assay is coupled to APE1.
For experiment [9], the target named is Uracil-DNA glycosylase (Homo sapiens) (UniProt P13051).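 Note: UNG excision on a quenched double-stranded DNA oligo probe, with APE1 added for strand incision and turnover, read as fluorescence at 594 nm as strands separate.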
Sequence of Uracil-DNA glycosylase (Homo sapiens) (P13051 whole entry): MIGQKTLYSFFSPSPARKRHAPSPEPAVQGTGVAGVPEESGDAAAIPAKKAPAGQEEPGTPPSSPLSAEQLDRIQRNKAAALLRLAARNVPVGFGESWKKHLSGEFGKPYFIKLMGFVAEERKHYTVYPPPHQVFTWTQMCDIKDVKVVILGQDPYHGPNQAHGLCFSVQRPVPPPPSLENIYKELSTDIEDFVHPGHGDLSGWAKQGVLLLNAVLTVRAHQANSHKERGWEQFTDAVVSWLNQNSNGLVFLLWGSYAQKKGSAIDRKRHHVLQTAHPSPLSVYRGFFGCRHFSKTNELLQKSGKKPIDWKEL
Description: Inhibition of UNG by quantifying inhibition of UNG-mediated cleavage and dissociation of quenched duplex DNA oligonucleotides, measured as fluorescence at 594 nm. To generate a functional strand incision and increase turn-over this assay is coupled to APE1.

Sequence of Methyl-CpG-binding domain protein 4 (Homo sapiens) (O95243 whole entry, the tested form may be a part): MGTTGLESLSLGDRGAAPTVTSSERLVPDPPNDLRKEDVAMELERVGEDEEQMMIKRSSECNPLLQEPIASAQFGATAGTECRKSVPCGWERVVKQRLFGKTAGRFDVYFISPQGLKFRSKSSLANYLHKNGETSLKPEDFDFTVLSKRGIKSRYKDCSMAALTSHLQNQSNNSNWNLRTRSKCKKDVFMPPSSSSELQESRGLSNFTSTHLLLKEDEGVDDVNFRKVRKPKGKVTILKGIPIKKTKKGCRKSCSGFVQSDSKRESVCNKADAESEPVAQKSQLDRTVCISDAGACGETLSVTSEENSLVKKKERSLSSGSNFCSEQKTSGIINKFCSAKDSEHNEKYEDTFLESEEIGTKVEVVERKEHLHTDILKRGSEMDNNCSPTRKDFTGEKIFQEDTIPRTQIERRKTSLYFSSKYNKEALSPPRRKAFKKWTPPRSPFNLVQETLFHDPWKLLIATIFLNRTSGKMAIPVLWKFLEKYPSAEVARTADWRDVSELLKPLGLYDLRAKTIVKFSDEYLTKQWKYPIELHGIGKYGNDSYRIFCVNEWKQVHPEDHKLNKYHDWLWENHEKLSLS
Sequence of Endonuclease 8-like 1 (Homo sapiens) (Q96FI4 whole entry): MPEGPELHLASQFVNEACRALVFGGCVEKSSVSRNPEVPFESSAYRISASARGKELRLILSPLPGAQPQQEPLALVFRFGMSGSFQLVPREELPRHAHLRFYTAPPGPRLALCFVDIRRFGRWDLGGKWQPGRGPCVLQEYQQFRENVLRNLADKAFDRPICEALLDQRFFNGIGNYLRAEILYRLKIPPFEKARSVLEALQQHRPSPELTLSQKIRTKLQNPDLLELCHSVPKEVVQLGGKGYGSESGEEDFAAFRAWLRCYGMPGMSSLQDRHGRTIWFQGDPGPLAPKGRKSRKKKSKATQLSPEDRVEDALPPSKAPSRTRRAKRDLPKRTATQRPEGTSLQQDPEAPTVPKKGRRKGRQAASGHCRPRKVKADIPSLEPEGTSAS

Take `CCOC(=O)c1ncn2c1CN(C)C(=O)c1cc(F)ccc1-2`: the inhibition was -4.21% in [1]; -3.91% in experiment [2]; 0.389% in [3]; -1.48% in experiment [4]; -6.87% in experiment [5]; 0.398% in experiment [6]. The inhibition in [7] is -0.518%; in experiment [8] it was 9.02%; in experiment [9], -9.3%.
As for `CCN(CC)S(=O)(=O)Nc1cccc(-c2ccc3c(NC(=O)C4CC4)n[nH]c3c2)c1`, the inhibition was -2.59% in [1]; 3.86% in experiment [2]; 9.38% in experiment [3]; 5.35% in experiment [4]; 9.15% in [5]; -4.92% in [6]. For the same compound, the inhibition was 11.9% in [7], 45.5% in experiment [8] and 2.23% in experiment [9].
Turning to `CN(C)C(=O)N[C@H]1CC[C@H](CCN2CCN(c3cccc(Cl)c3Cl)CC2)CC1`, the inhibition in [1] is -1.19%; in experiment [2] it was -7.07%; in experiment [3], -4.8%; in [4] it was 10.2%; in experiment [5] it was 2.66%; in experiment [6], 1.62%. Besides, the inhibition in experiment [7] was 1.03%; in [8] it was 14.4%; in experiment [9], -3.02%.
On to `CCCCN(CC)c1nc(C)nc2c1c(C)cn2-c1c(C)cc(C)cc1C`, for which the inhibition in experiment [1] is -9.26%; in experiment [2], 6%; in experiment [3], -1.24%; in experiment [4], 9%; in experiment [5], 19.5%; in experiment [6], 2.6%. In addition, the results for the inhibition in experiment [7], in [8] and in [9] were -0.0333%, 13.7% and -4.91%, respectively.
`CC(C)(C)NCC(O)COc1cccc2[nH]c(=O)[nH]c12` (stereo unspecified): the inhibition was 12.3% in [1]; 4.34% in experiment [2]; 3.06% in experiment [3]; 10.5% in experiment [4]; -6.87% in experiment [5]; -2.11% in experiment [6]. Also, the inhibition in experiment [7] is 12.3%; in experiment [8] it was 5.99%; in experiment [9] it was -8.82%.
For the compound `CCOC(=O)c1cnn(-c2ccc(NC(=O)C(Cl)=C(Cl)Cl)cc2)c1C(F)(F)F`, the inhibition in experiment [1] is 1.57%; in experiment [2], 17.3%; in [3] it was -3.99%; in experiment [4] it was 2.71%; in experiment [5], 8%; in [6] it was -2.43%. Besides, the inhibition was 15% in [7], 5.37% in [8] and 2.51% in experiment [9].
Take `COc1ccc(-n2nc3c4ccccc4[nH]cc-3c2=O)cc1`: the inhibition in [1] is 1.12%; in experiment [2] it was -3.24%; in experiment [3] it was 0.00926%; in experiment [5], -6.86%; in experiment [6] it was -8.16%; in experiment [7], -6.96%. The inhibition in experiment [8] was -5.16%; in [9], -4.77%.
With `CCOC(=O)C1=C[C@]2(CC)CCCN3CCc4c(n1c1ccccc41)[C@@H]32`, the inhibition was -4.24% in experiment [1]; -4.56% in experiment [2]; 2.53% in [3]; 6.02% in [4]; 18.7% in [5]; -8.62% in experiment [6]. Further, the inhibition in experiment [7] was 1%; in experiment [8] it was -4.28%; in [9] it was -5.08%.
Take `OC(CN1CCC(Cc2ccc(F)cc2)CC1)c1ccc(Cl)cc1` (stereo unspecified): the inhibition in experiment [1] was -0.39%; in experiment [2], 4.63%; in experiment [3], 0.602%; in [4] it was -7.99%; in experiment [5], 8.82%; in experiment [6] it was -4.77%. Moreover, the inhibition in experiment [7] was -3.86%; in [8] it was -8.99%; in [9], -7.04%.
As to `CCOc1ccc(S(=O)(=O)Nc2ccc(Cl)cc2C#Cc2cnc(C(=O)O)cc2OC)c2ncccc12`, the inhibition in experiment [1] was 60.3%; in experiment [2], 14.2%; in experiment [3], 7.43%; in experiment [5], -3.26%; in [6], 7.9%; in experiment [7], 5.88%. Also, the inhibition came to 51.4% in experiment [8] and 7.85% in experiment [9].
Take `Cc1c(C(=O)NC2CCCCC2)sc2nc3ccc(N)cc3n12`: the inhibition is 7.24% in experiment [1]; -4.14% in experiment [2]; -4.65% in experiment [3]; 1.76% in experiment [4]; 7.79% in experiment [5]; -4.66% in [6]. For the same compound, the inhibition in experiment [7] is 8.2%; in [8], 11.8%.
Consider `NC(CCP(=O)(O)O)C(=O)O` (racemic), for which the inhibition in experiment [1] is 6.95%; in experiment [2], -3.6%; in experiment [3], 0.0927%; in experiment [4], -9.22%; in experiment [5], 2.66%; in [6], -1.26%. The inhibition in experiment [7] is 10.5%; in experiment [8] it was 24.4%; in experiment [9], -6.54%.
`Cn1c(=O)n(CCCO)c(=O)c2c1nc(Oc1cccc(OC(F)(F)F)c1)n2Cc1ccc(Cl)cc1`: the inhibition was 26.6% in [1]; 13.8% in experiment [2]; -2.66% in experiment [3]; -7.23% in [4]; 8.82% in experiment [5]; -1.67% in experiment [6]. The inhibition is 10.3% in experiment [7], 19.9% in [8] and -4.54% in experiment [9].
Consider `Cc1c(C(=O)NN2CCCCC2)nn(-c2ccc(Cl)cc2Cl)c1-c1ccc(Cl)cc1`, for which the inhibition in [1] was 16.2%; in [2], 15.3%; in experiment [3] it was -1.09%; in experiment [4] it was 0.764%; in experiment [5], -0.275%; in [6] it was 9%. Moreover, the inhibition in experiment [7] was 11.7%; in [8], 19.2%; in experiment [9], 1.35%.
For `Clc1cccc(-n2nnnc2NCc2ccccc2Oc2ccccn2)c1Cl`, the inhibition in experiment [1] was 4.1%; in experiment [2] it was 12.9%; in experiment [3], 4.75%; in [4] it was -1.88%; in experiment [5] it was 4.7%; in [6], -2.45%. Moreover, the inhibition in experiment [7] is 6.2%; in experiment [8], 0.87%; in experiment [9], -1.01%.
In the case of `COc1ccc(Cl)cc1[C@]1(F)C(=O)Nc2cc(C(F)(F)F)ccc21`, the inhibition in experiment [1] is -4.08%; in experiment [2] it was -5.04%; in [3], 3.12%; in experiment [4], 17%; in experiment [5], 6.35%; in experiment [6] it was 4.52%. For the same compound, the inhibition in experiment [7] was 8.52%; in [8] it was -9.73%; in experiment [9] it was -2.84%.
Turning to `Cc1cc(C(C)(C)C)c(O)c(C)c1CC1=NCCN1`, the inhibition in experiment [1] was -7.05%; in [2], 3.54%; in experiment [3] it was 8.25%; in [4], 19%; in experiment [5], 1.92%; in experiment [6], -1.82%. Also, the values for the inhibition in experiment [7], in experiment [8] and in [9] were -3.38%, 10.8% and -7.32%, respectively.
For `CCN(CC)CCCCC1CCN(CC(=O)N2c3ccccc3C(=O)Nc3cccnc32)CC1`, the inhibition in [1] was -4.84%; in experiment [2], -8.23%; in experiment [3] it was -7.47%; in [4], 12.7%; in experiment [5], 12.2%; in experiment [6], -2.09%. The inhibition in experiment [7] amounted to 1.37%; in experiment [8] it was 10.1%.
With `CN1CCC(=C2c3ccccc3CC(=O)c3sccc32)CC1`, the inhibition in experiment [1] was -9.08%; in experiment [2], -7.46%; in experiment [3] it was 8.25%; in [4], 2.26%; in experiment [5], -2.47%; in experiment [6], -5.18%. Besides, the inhibition in experiment [7] was -4.83%; in experiment [8] it was 2.08%.
